According to patent US9718790B2, “Triazine derivative and pharmaceutical composition having an analgesic activity comprising the same” (SHIONOGI & CO., LTD., priority 2010, dated 2017):

molecular target: human P2X3 receptor (Homo sapiens (Human), UniProt P56373); test: Evaluation of human P2X3 receptor inhibitory activity (Fluo-3 calcium fluorescence, FDSS 3000, ATP stimulation); assay type: cell-based; details: C6BU-1 cells stably expressing human P2X3 receptor;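 further: stimulus was 50 nM ATP with fluorescence followed for 3 min, and the response per well was peak post-ATP fluorescence divided by the reading at measurement start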
Sequence (P56373 whole entry): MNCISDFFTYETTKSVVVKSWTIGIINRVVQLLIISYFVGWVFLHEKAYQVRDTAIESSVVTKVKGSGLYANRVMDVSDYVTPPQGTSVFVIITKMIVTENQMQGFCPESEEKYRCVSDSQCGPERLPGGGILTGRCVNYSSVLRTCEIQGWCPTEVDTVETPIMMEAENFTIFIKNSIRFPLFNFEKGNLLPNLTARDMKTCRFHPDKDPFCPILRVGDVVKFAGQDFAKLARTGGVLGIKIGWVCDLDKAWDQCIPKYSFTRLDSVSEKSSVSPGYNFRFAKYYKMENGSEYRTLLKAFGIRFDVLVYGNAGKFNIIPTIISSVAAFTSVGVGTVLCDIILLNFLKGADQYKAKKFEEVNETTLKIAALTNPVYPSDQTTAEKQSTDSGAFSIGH

First: O=C(O)c1cccc(Oc2ccc(/N=c3\[nH]c(=O)[nH]c(=O)n3Cc3ccc(Cl)cc3)cc2)c1 [Compound I-1923]
Second: CCn1c(=O)[nH]/c(=N\c2ccc(Oc3ccc(C(=O)O)o3)cc2)n(Cc2ccc(Cl)cc2)c1=O [Compound I-2152]
The IC50 of the first is 2-fold higher: 84 nM for the first, 41 nM for the second. The second is the more potent here.

Going from `CC(C)Oc1ccc(/N=c2\[nH]c(=O)n(C[C@H]3COC(C)(C)O3)c(=O)n2Cc2ccc(Cl)cc2)cc1Cl` [Compound I-0633] to `COC(=O)Cn1c(=O)[nH]/c(=N\c2ccc(OC(C)C)c(Cl)c2)n(Cc2ccc(Cl)cc2)c1=O` [Compound I-0660], the IC50 rises from 4 nM to 11 nM (2.8-fold).

Compared with `CCOC(=O)CCn1c(=O)[nH]/c(=N\c2ccc(CC(C)C)c(OC)c2)n(Cc2ccc(Cl)cc2)c1=O` [Compound I-1308], `CCOC(=O)CCn1c(=O)[nH]/c(=N\c2ccc(OC(C)C)c(COC)c2)n(Cc2ccc(C)cc2)c1=O` [Compound I-1421] is 30-fold higher in IC50: 29 nM for the first, 883 nM for the second.

Compared with `C[C@@H](Cn1c(=O)[nH]/c(=N\c2ccc(OC(F)F)c(F)c2)n(Cc2ccc(Cl)cc2)c1=O)C(=O)O` [Compound I-0658], `CC(C)Oc1ccc(/N=c2\[nH]c(=O)n(CCC(=O)NN)c(=O)n2Cc2ccc(Cl)cc2)cc1F` [Compound I-0644, 1-(4-chlorobenzyl)-6-(3-fluoro-4-isopropoxyphenylimino)-3-(2-hydrazinecarbonylethyl)-1,3,5-triazinane-2,4-dion] is 2.7-fold lower in IC50: 109 nM for the first, 40 nM for the second.

First: Cc1ccc(Oc2ccc(/N=c3\[nH]c(=O)n(CC(=O)O)c(=O)n3Cc3ccc(Cl)cc3)cc2)cn1 [Compound I-1934]
Second: CCn1c(=O)[nH]/c(=N\c2ccc(Oc3ccsc3C(=O)OC)cc2)n(Cc2ccc(Cl)cc2)c1=O [Compound I-2037]
The IC50 of the first is 1.7-fold lower: 198 nM for the first, 340 nM for the second. The first is the more potent here.

First: CC(C)Oc1ccc(/N=c2\[nH]c(=O)n(CCNC(=N)N)c(=O)n2Cc2ccc(Cl)cc2)cc1F [Compound I-0659, 1-(4-chlorobenzyl)-6-(3-fluoro-4-isopropoxyphenylimino)-3-(4-imino-4-amino-3-azabutyl)-1,3,5-triazinane-2,4-dion]
Second: CC(C)Oc1ccc(/N=c2\[nH]c(=O)n(C[C@@H](O)CO)c(=O)n2Cc2ccc(Cl)cc2)cc1Cl [Compound I-0616]
The IC50 of the first is 13-fold higher: 134 nM for the first, 10 nM for the second. The second is the more potent here.

First: Cc1ccc(Cn2c(=O)n(CC3(C(=O)O)CC3)c(=O)[nH]/c2=N\c2ccc(CC(C)C)c(Cl)c2)cc1 [Compound I-1451]
Second: Cc1ccc(Cn2c(=O)n(CCC(=O)O)c(=O)[nH]/c2=N\c2ccc(CC(C)C)c(F)c2)cc1 [Compound I-1299]
The IC50 of the first is 10-fold lower: 5 nM for the first, 51 nM for the second. The first is the more potent here.

`CCn1c(=O)[nH]/c(=N\c2ccc(Oc3cncc(C(=O)OC)c3)cc2)n(Cc2ccc(C)cc2)c1=O` [Compound I-2076] and `CCn1c(=O)[nH]/c(=N\c2ccc(Oc3cncc(OC)n3)cc2)n(Cc2ccc(Cl)cc2)c1=O` [Compound I-2125] are the same in IC50: 7 nM for the first, 7 nM for the second.

`COc1cc(/N=c2\[nH]c(=O)n(C[C@H](O)CO)c(=O)n2Cc2ccc(Cl)cc2)ccc1OC(C)C` [Compound I-2004] and `CNC(=O)[C@@H](C)Cn1c(=O)[nH]/c(=N\c2ccc(OC(C)C)c(C)c2)n(Cc2ccc(Cl)cc2)c1=O` [Compound I-0721] are the same in IC50: 13 nM for the first, 13 nM for the second.

First: CCn1c(=O)[nH]/c(=N\c2ccc(Oc3nc(O)nc(O)n3)cc2)n(Cc2ccc(Cl)cc2)c1=O [Compound I-2222]
Second: CC[C@@H](C)Oc1ccc(/N=c2\[nH]c(=O)n(C[C@H](C)C(=O)O)c(=O)n2Cc2ccc(Cl)cc2)cc1 [Compound I-0754]
The IC50 of the first is 3.2-fold lower: 5 nM for the first, 16 nM for the second. The first is the more potent here.

`O=C(O)CCn1c(=O)[nH]/c(=N\c2ccc(OC3CCC3)cc2)n(Cc2ccc(Cl)cc2)c1=O` [Compound I-1286] and `C[C@H](C(=O)O)[C@@H](C)n1c(=O)[nH]/c(=N\c2ccc(OCC3CC3)cc2)n(Cc2ccc(Cl)cc2)c1=O` [Compound I-1344] are within 1.5-fold of each other in IC50: 34 nM for the first, 33 nM for the second.

Going from `C=Cc1cc(/N=c2\[nH]c(=O)n(C[C@H](C)C(=O)O)c(=O)n2Cc2ccc(C)cc2)ccc1OCC` [Compound I-1194] to `COc1cc(/N=c2\[nH]c(=O)n(C[C@H](C)C(=O)O)c(=O)n2Cc2ccc(C)cc2)ccc1CC(C)C` [Compound I-1261], the IC50 falls from 31 nM to 18 nM (1.7-fold). The second is the more potent here.

`CCCOc1ccc(/N=c2\[nH]c(=O)n(C[C@H](C)C(=O)OC)c(=O)n2Cc2ccc(Cl)cc2)cc1C` [Compound I-0707] and `COC(=O)[C@@H](C)Cn1c(=O)[nH]/c(=N\c2ccc(CC(C)C)c(Cl)c2)n(Cc2ccc(Cl)cc2)c1=O` [Compound I-1370] are within 1.5-fold of each other in IC50: 21 nM for the first, 19 nM for the second.

`CC(C)=Cc1ccc(/N=c2\[nH]c(=O)n(C[C@H](C)C(=O)O)c(=O)n2Cc2ccc(C)cc2)cn1` [Compound I-1304] was tested, and the IC50 was 574 nM.

same assay, conditions: C6BU-1 cells stably expressing human P2X3 receptor, Fluo-3 fluorescence, FDSS 3000

`CC(C)n1cnc2cc(/N=c3\[nH]c(=O)n([C@@H](C)[C@@H](C)C(=O)O)c(=O)n3Cc3ccc(Cl)cc3)ccc21` [Compound I-1772] and `CCn1c(C)nc2cc(/N=c3\[nH]c(=O)n([C@@H](C)[C@@H](C)C(=O)O)c(=O)n3Cc3ccc(Cl)cc3)ccc21` [Compound I-1583] are within 1.5-fold of each other in IC50: 297 nM for the first, 332 nM for the second.

Going from `Cc1ccc(Cn2c(=O)n(C[C@H](C)C(=O)O)c(=O)[nH]/c2=N\c2ccc(OC3CCOCC3)cc2)cc1` [Compound I-1074] to `Cc1ccc(Cn2c(=O)n(C[C@H](C)C(=O)O)c(=O)[nH]/c2=N\c2cccc(C3CCCCC3)c2)cc1` [Compound I-1109], the IC50 rises from 86 nM to 430 nM (5-fold). The first is the more potent here.

`CCc1oc2ccc(/N=c3\[nH]c(=O)n(CCNC(C)=O)c(=O)n3Cc3ccc(Cl)cc3)cc2c1C` [Compound I-1566] and `CCc1oc2ccc(/N=c3\[nH]c(=O)n(C[C@H]4COC(C)(C)O4)c(=O)n3Cc3ccc(Cl)cc3)cc2c1C` [Compound I-1604] are the same in IC50: 8 nM for the first, 8 nM for the second.

First: CC(C)Oc1ccc(/N=c2\[nH]c(=O)n(Cc3cc(O)no3)c(=O)n2Cc2ccc(Cl)cc2)cc1F [Compound I-1767]
Second: COC(=O)CC1(Cn2c(=O)[nH]/c(=N\c3ccc(OC(C)C)c(C)c3)n(Cc3ccc(Cl)cc3)c2=O)CC1 [Compound I-0978]
The IC50 of the first is 4.2-fold higher: 55 nM for the first, 13 nM for the second.

Compared with `Cc1ccc(Cn2c(=O)n(CCC(=O)O)c(=O)[nH]/c2=N\c2ccc(OCC(C)(C)C)cc2)cc1` [Compound I-1071], `CCCOc1ccc(/N=c2\[nH]c(=O)n(C[C@@H](CC)C(=O)OC)c(=O)n2Cc2ccc(Cl)cc2)cc1` [Compound I-1038] is 170-fold lower in IC50: 998 nM for the first, 6 nM for the second. The second is the more potent here.

`CCc1nc2ccc(/N=c3\[nH]c(=O)n(CC(C)(C)C(=O)OC)c(=O)n3Cc3ccc(Cl)cc3)cc2s1` [Compound I-1572] and `CCc1nc2ccc(/N=c3\[nH]c(=O)n(CC)c(=O)n3Cc3ccc(Cl)cc3)cc2s1` [Compound I-1703] are within 1.5-fold of each other in IC50: 5 nM for the first, 4 nM for the second.

Going from `COc1noc2cc(/N=c3\[nH]c(=O)n([C@@H](C)[C@@H](C)C(=O)O)c(=O)n3Cc3ccc(Cl)cc3)ccc12` [Compound I-1746] to `C[C@@H](C(=O)O)[C@H](C)n1c(=O)[nH]/c(=N\c2ccc3c(c2)CC/C3=N\O)n(Cc2ccc(Cl)cc2)c1=O` [Compound I-1777], the IC50 rises from 129 nM to 636 nM (4.9-fold).

Going from `CC(C)n1c(=O)nc(Nc2ccc3oc(=O)[nH]c3c2)n(Cc2ccc(Cl)cc2)c1=O` [Compound I-0249] to `Cc1nc2ccc(/N=c3\[nH]c(=O)n(CCCO)c(=O)n3Cc3ccc(Cl)cc3)cc2s1` [Compound I-1619], the IC50 falls from 953 nM to 6 nM (160-fold).

`Cc1ccc(Cn2c(=O)n(CC3(C(=O)O)CC3)c(=O)[nH]/c2=N\c2ccc(OC(C)C)c(C)c2)cc1` [Compound I-0935] and `CCc1ccc(Cn2c(=O)n(C[C@H](C)C(=O)OC)c(=O)[nH]/c2=N\c2ccc(OC(C)C)cc2)cc1` [Compound I-1133] are within 1.5-fold of each other in IC50: 38 nM for the first, 51 nM for the second.

Going from `COC(=O)[C@@H](C)Cn1c(=O)[nH]/c(=N\c2ccc(Oc3ccncc3)cc2)n(Cc2ccc(C)cc2)c1=O` [Compound I-1125] to `CCN(c1ccc(/N=c2\[nH]c(=O)n(C[C@H](C)C(=O)O)c(=O)n2Cc2ccc(Cl)cc2)cc1)C(C)C` [Compound I-0963], the IC50 rises from 4 nM to 662 nM (170-fold).

Work on `Cc1nc2ccc(/N=c3\[nH]c(=O)n(CC(C)(CO)CO)c(=O)n3Cc3ccc(Cl)cc3)cc2s1` [Compound I-1643] yielded an IC50 of 5 nM.

same assay, conditions: human P2X3 receptor, Test Example 1

Compared with `COC(=O)[C@@H](C)Cn1c(=O)[nH]/c(=N\c2cc(Cl)cc(Cl)c2)n(Cc2ccc(C)cc2)c1=O` [Compound I-1497], `COC(=O)[C@@H](C)Cn1c(=O)[nH]/c(=N\c2ccc(OCC(F)F)cc2)n(Cc2ccc(C)cc2)c1=O` [Compound I-0847] is 20-fold lower in IC50: 619 nM for the first, 31 nM for the second. The second is the more potent here.

First: NCCn1c(=O)[nH]/c(=N\c2ccc(Oc3ccon3)cc2)n(Cc2ccc(Cl)cc2)c1=O [Compound I-2523]
Second: CCn1c(=O)[nH]/c(=N\c2ccc(Oc3cccc(C#N)n3)cc2)n(Cc2ccc(Cl)cc2)c1=O [Compound I-2302]
The IC50 of the first is 84-fold higher: 169 nM for the first, 2 nM for the second. The second is the more potent here.

Compared with `CNC(=O)c1cc(Oc2ccc(/N=c3\[nH]c(=O)n(C)c(=O)n3Cc3ccc(Cl)cc3)cc2F)ccn1` [Compound I-2433], `Cn1c(=O)[nH]/c(=N\c2ccc(Oc3cncc(C(=O)O)n3)cc2)n(Cc2ccc(Cl)cc2)c1=O` [Compound I-2476] is 2.6-fold higher in IC50: 5 nM for the first, 13 nM for the second. The first is the more potent here.

First: CCOC(=O)CCn1c(=O)[nH]/c(=N\c2ccc3nc(C)sc3c2)n(Cc2ccc(C)cc2)c1=O [Compound I-1519]
Second: Cc1nc2ccc(/N=c3\[nH]c(=O)n(CCC(=O)O)c(=O)n3Cc3ccc(Cl)cc3)cc2s1 [Compound I-1520]
The IC50 of the first is 16-fold lower: 2 nM for the first, 32 nM for the second.

Compared with `Cn1c(=O)[nH]/c(=N\c2ccc(Oc3cccc(/C=C/C(=O)O)c3)cc2)n(Cc2ccc(Cl)cc2)c1=O` [Compound I-2364], `CCn1c(=O)[nH]/c(=N\c2ccc(Oc3ccc(C(=O)NC)nn3)cc2)n(Cc2ccc(Cl)cc2)c1=O` [Compound I-2533] is 2-fold lower in IC50: 8 nM for the first, 4 nM for the second.

Going from `COC(=O)c1cncc(Oc2ccc(/N=c3\[nH]c(=O)n(C)c(=O)n3Cc3ccc(C)cc3)cc2)n1` [Compound I-2468] to `COC(=O)c1cncc(Oc2ccc(/N=c3\[nH]c(=O)n(C4COC4)c(=O)n3Cc3ccc(Cl)cc3)cc2)c1` [Compound I-2332], the IC50 rises from 20 nM to 218 nM (11-fold).

Going from `Cc1nsc(Oc2ccc(/N=c3\[nH]c(=O)n(C[C@H](O)CO)c(=O)n3Cc3ccc(Cl)cc3)cc2F)n1` [Compound I-2708] to `Cc1ccc(Cn2c(=O)n(C[C@H](C)C(=O)O)c(=O)[nH]/c2=N\c2ccc(OCC(C)C)c(C)c2)cc1` [Compound I-0836], the IC50 rises from 2 nM to 95 nM (48-fold).

`Cc1ccc(Cn2c(=O)n(C[C@H](C)C(=O)O)c(=O)[nH]/c2=N\c2ccc(Oc3ccccc3)nc2)cc1` [Compound I-1517] was tested, and the IC50 was 240 nM.
